Results published in patent EP1285920A1, “C10 Ester sustituted taxanes as antitumor agents” (Florida State University Research Foundation, Inc., priority 2001, dated 2003).
Read-outs that look alike come from different tables or passages of the source.

Assays:
HCT116 carcinoma = conditions: for Stable Disease / Complete Response / Partial Response / Survivors / Toxic Deaths: number of 5 mice
Summary of the method: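 Mice bearing HCT116 tumours received a single i.v. maximum tolerated dose per compound, formulated in 5% ethanol, 5% Cremophor, 90% isotonic saline. Study ended on Day 60; complete response meant no palpable tumour at study end.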

SK-MES carcinoma = assay: In vivo evaluation against SK-MES human lung carcinoma xenograft (i.v., Example 11); conditions: SK-MES
Description: Antitumor compounds were formulated for an i.v. dosing regime prepared in the following vehicle: 10% ethanol, 10% Cremophor and 80% isotonic saline.
Vehicle control animals were dosed twice intravenously with half the total volume being given separated by one hour. The study was terminated on Day 60.
A complete response is obtained if the tumor is not palpable at the end of the study.
A tumor scoring system was designed to provide a more quantitative ranking of efficacy (therapeutic potential) among the antitumor agents evaluated against the different human solid tumor xenografts. Each mouse in a study was given a score of from 1 to 10 at the end of the study. The scores can be summarized as follows:
The individual score for each mouse was averaged into a mean score for each treatment group. […]

[1] = system: Panc-1 pancreatic carcinoma; assay: In vivo evaluation against Panc-1 human pancreatic carcinoma (Example 17)
HCT116 = assay: In Vitro cytotoxicity measured by the cell colony formation assay; type: cell-based, human; conditions: Homo sapiens, HCT-116; read-out: IN VITRO ID 50 HCT116
Summary of the method: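 Four hundred cells per dish in McCoy's 5a medium with 10% FBS were allowed to attach for 5 h at 37 °C. They were then exposed to compound for 72 h at 37 °C, added as a 10× stock made fresh in medium. After HBSS rinsing and refeeding, colonies were counted after 7 days.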

VM46 colon carcinoma = conditions: for Mean Score: tumor scoring system
Description: Dosing was initiated on Day 1. […] Taxotere was given i.v. at a dose of 70 mg/kg on a qd x 1 schedule.

[2] = number of mice, i.v. qd x 1, mg/kg: Taxol 36, 0499 77, 0503 72.6, 0670 123.1, 0706 107.6, 0838 72.6, 0854 76.9, 6 mice/group, Day 60
[3] = number of mice, Taxol 15 mg/kg i.p. qd x 5, 6 mice, Day 64
[4] = number of mice, i.v. qd x 1, mg/kg: Taxol 24, 0499 77, 0503 72.6, 0670 123.1, 0706 107.6, 0838 72.6, 0854 46.6, 0983 67.4, Taxotere 70, 6 mice/group, Day 64

CC(=O)O[C@H]1C(=O)[C@@]2(C)[C@H]([C@H](OC(=O)c3ccccc3)[C@]3(O)C[C@H](OC(=O)[C@H](O)[C@@H](NC(=O)c4ccccc4)c4ccccc4)C(C)=C1C3(C)C)[C@]1(OC(C)=O)CO[C@@H]1C[C@@H]2O [Taxol, paclitaxel, reference compound]
Mean Score (HCT116 carcinoma; Taxol 18 mg/kg i.p. qd x 5, 5 mice): 3.6 ± 1.4 | Mean Score (HCT116 carcinoma; i.v. qd x 1 at MTD, 5 mice/group, Day 60, doses as in E3): 2.2 ± 0.5 | MDS (n) (HCT116 carcinoma; mean days of survival until tumor reached 2.0 g, i.v. qd x 1 at MTD, 5 mice/group, study ended Day 60, mg/kg: Taxol 36 (split doses), 0503 72.6, 0536 49, 0663 159, 0670 123, 0687 159, 0706 108, 0908 159, 0947 76.9, 0951 72.6, 0983 72.6, 0999 49, 1003 49, 1011 108): 27.5 ± 1.7 (4) days | tolerability (HCT116 carcinoma; mouse, in vivo, iv): well-tolerated | Stable Disease (HCT116 carcinoma; tumor did not reach 2.0 g by end of study, i.v. qd x 1 at MTD, Day 60, doses as in E3): 1 | Complete Response (HCT116 carcinoma; tumor not palpable at end of study, i.v. qd x 1 at MTD, Day 60, doses as in E3): 0 | Partial Response (HCT116 carcinoma; tumor smaller than on Day 1, i.v. qd x 1 at MTD, Day 60, doses as in E3): 0 | Complete Response (HCT116 carcinoma; Taxol 18 mg/kg i.p. qd x 5): 0 | Partial Response (HCT116 carcinoma; Taxol 18 mg/kg i.p. qd x 5): 1 | Stable Disease (HCT116 carcinoma; Taxol 18 mg/kg i.p. qd x 5): 0 | Survivors (HCT116 carcinoma; Taxol 18 mg/kg i.p. qd x 5): 1 | Toxic Deaths (HCT116 carcinoma; Taxol 18 mg/kg i.p. qd x 5): 0 | Survivors (HCT116 carcinoma; i.v. qd x 1 at MTD, Day 60, doses as in E3): 1 | Toxic Deaths (HCT116 carcinoma; i.v. qd x 1 at MTD, Day 60, mg/kg: Taxol 36 (split doses), 0503 72.6, 0536 49, 0663 159, 0670 123, 0687 159, 0706 108, 0908 159, 0947 76.9, 0951 72.6, 0983 72.6, 0999 49, 1003 49, 1011 108): 0 | survival extension compared to vehicle controls (SK-MES carcinoma; Taxol 36 mg/kg i.v.): 30% | MDS (n) (SK-MES carcinoma; i.v. MTD in two half doses one hour apart, qd x 1, Taxol 36 mg/kg, 0503 72.1 mg/kg, days until tumor 1.5 g, ended Day 60): 16 ± 2.0 (6) days | Toxic Deaths (SK-MES carcinoma; i.v. split dose qd x 1, six mice per group): 0 | Survivors (SK-MES carcinoma; i.v. split dose qd x 1, six mice per group, Day 60): 0 | Stable Disease (SK-MES carcinoma; i.v. split dose qd x 1, tumor below 1.5 g at termination): 0 | Complete Response (SK-MES carcinoma; i.v. split dose qd x 1, tumor not palpable at end of study): 0 | Partial Response (SK-MES carcinoma; i.v. split dose qd x 1, tumor smaller than on Day 1): 0 | Mean Score (SK-MES carcinoma; tumor score 1 to 10 per mouse, group mean): 1.3 ± 0.3 | survival extension compared to Group 1 controls ([1]; Panc-1 (Example 17), Taxol 36 mg/kg i.v. qd x 1, three mice): 126% | Toxic Deaths ([1]; Panc-1 (Example 17), i.v. qd x 1, six mice per group): Three | Toxic Deaths ([1]; number of mice, i.v. qd x 1, mg/kg: Taxol 36, 0499 77, 0503 72.6, 0670 123.1, 0706 107.6, 0838 72.6, 0854 76.9, 6 mice/group): 3 | Complete Response [1, 2]: 0 | Partial Response [1, 2]: 0 | Stable Disease [1, 2]: 0 | Survivors [1, 2]: 0 | Mean Score ([1]; tumor scoring system, i.v. qd x 1, mg/kg: Taxol 36, 0499 77, 0503 72.6, 0670 123.1, 0706 107.6, 0838 72.6, 0854 76.9, 6 mice/group): 1.6 ± 0.7 | IC50 (HCT116): 2.1 nM | toxicity (VM46 colon carcinoma; VM46, Taxol i.p. 15 mg/kg qd x 5): excessively toxic | mortalities (VM46 colon carcinoma; VM46, Taxol i.p. 15 mg/kg qd x 5, six treated animals): three | partial responses (VM46 colon carcinoma; VM46, i.v. qd x 1 (compounds estimated MTD; Taxol 24 mg/kg split), six mice per group, ended Day 64): one | Stable Disease (VM46 colon carcinoma; VM46, i.v. qd x 1, six mice per group): one | MDS (n) (VM46 colon carcinoma; mean days of survival until neoplasm reached 1.5 g, Taxol 15 mg/kg i.p. qd x 5, 6 mice, terminated Day 64): 36.1 ± 12.2 (2) days | Toxic Deaths (VM46 colon carcinoma; number of mice, Taxol 15 mg/kg i.p. qd x 5, 6 mice): 3 | Complete Response (VM46 colon carcinoma; [3]): 0 | Partial Response (VM46 colon carcinoma; [3]): 1 | Stable Disease (VM46 colon carcinoma; [3]): 0 | Survivors (VM46 colon carcinoma; [3]): 1 | Toxic Deaths (VM46 colon carcinoma; number of mice, i.v. qd x 1, mg/kg: Taxol 24, 0499 77, 0503 72.6, 0670 123.1, 0706 107.6, 0838 72.6, 0854 46.6, 0983 67.4, Taxotere 70, 6 mice/group): 0 | Complete Response (VM46 colon carcinoma; [4]): 0 | Partial Response (VM46 colon carcinoma; [4]): 1 | Stable Disease (VM46 colon carcinoma; [4]): 1 | Survivors (VM46 colon carcinoma; [4]): 2 | Mean Score (VM46 colon carcinoma; Taxol 15 mg/kg i.p. qd x 5, 6 mice): 1.8 ± 1.3 | Mean Score (VM46 colon carcinoma; i.v. qd x 1, mg/kg: Taxol 24, 0499 77, 0503 72.6, 0670 123.1, 0706 107.6, 0838 72.6, 0854 46.6, 0983 67.4, Taxotere 70, 6 mice/group): 3.8 ± 1.4
